Measurements reported in patent publication US20250136607A1 (REGOR PHARMACEUTICALS, INC., priority 2021, published 2025).
Where two headings read alike, the source gives them in different places.

Test system: Citrullinated Histone H3 in 4T1 (TNBC cell line) cells
Test: 4T1 CECN ELISA assay
Assay type: cell-based
Settings: 4T1 cells, stimulation with 50 μM A23187 for 4 h, read-out: Average IC50 Abs
Description: Cell culture: 4T1 cells were grown in DMEM+10% FBS+1% HEPES+1% PS. Cells plating: • 1) 4T1 cells were collected and the plate was centrifuged at 1000 rpm for 5 min. • 2) The 4T1 cells were diluted to 0.5×10^6 cells/mL and plated into a 96-well plate with 100 μL/well. The plate was then incubated in the incubator (5% CO2, 37° C.) for overnight to allow cells to adhere, exchanged fresh culture medium with 100 μL/well. Compound treatment: • 1) Preparation of compound serial dilution (source plate 500×, final DMSO concentration: 0.2%): briefly, compounds were dissolved in 100% DMSO to a concentration of 20 mM (the stock solution) and a 3-fold serial dilution with 8-point doses was performed. • 2) 10× compound solution was pipetted up and down; and 10 μL/well of compounds were added into each well and incubated for 30 min. Stimulation with 50 μM A23187: • 1) A solution of A23187 (500 μM) in complete DMDM (DMDM+10% FBS+1% PS+1 mM CaCl2) containing 150 U/mL S7 Nuclease was prepared. The obtained solution was added 10 μL/well into each well and incubated for 4 h in the incubator (5% CO2, 37° C.). • 2) The 4T1 cells treated with 10 μL/well complete DMDM without A23187 worked as negative control. Sample preparation: • 1) EDTA (0.5 M, 2 μL/well) were added to all the wells to stop the reaction. • 2) The plate was centrifuged at 1000 rpm for 5 min to collect supernatant. • 3) The supernatant was then diluted at least 1:2 before adding to the ELISA plate for citrullinated H3 analysis.
The standard was reconstituted with 2 mL of Assay buffer to 500 ng/mL. The reconstituted standard was relatively unstable at 4° C. and should be used within 3 hr after reconstitution.
• 1) 100 μL of the standards or diluted samples were added to the wells on the ELISA plate. • 2) The plate was covered with Cover Sheet and incubated for 2 h at RT on an orbital shaker.
On the day of the assay, the reagent was thawed at rt. For one plate, 1.2 mL of HRP Conjugate were diluted into 10.8 mL of assay buffer. A diluted HRP Conjugate was prepared shortly before use.
• 1) The wells were empties and rinsed four times with 1× wash buffer with 300 μL/well (Low speed). The plate was inverted between wash steps to empty the plate. After the last wash, the inverted plate was gently tapped on absorbent paper to remove the residual wash buffer. • 2) 100 μL of the HRP Conjugate working solution were added to each well of the plate. • 3) The plate was covered with cover sheet and incubated for 1 h at RT on an orbital shaker.
• 1) The wells were empties and rinsed four times with 1× wash buffer with 300 μL/well (low speed). The plate was inverted between wash steps to empty the plate. […] 100 μL of HRP STOP solution were added to each well of the plate.
• 1) Wipe the bottom of the plate with a clean tissue to remove fingerprints, dirt, etc. • 2) Read the plate at a wavelength of 450 nm.
The percent (%) inhibition at each concentration of compound was calculated based on and relative to the signal in the HPE and ZPE wells contained within each assay plate. The HPE wells worked as […], and the ZPE wells didn't contain any compound but rather DMSO (final concentration=[…]) as […]. The concentrations and % inhibition values for tested compounds were plotted and the concentration of compound required for 50% inhibition (IC50) was determined with a Four-parameter logistic dose response equation. The endpoint value (IC50) for the reference peptide/compound was evaluated in each experiment as a quality control measure. If the endpoint value is within 3-fold of the expected value then the experiment is deemed acceptable. The results of representative compounds of the present invention are provided in Table 3 below. ≤0.1 μM=“++++”; >0.1 and ≤0.5 μM=“+++”; >0.5 and ≤5.0 μM=“++”; >5.0 μM=“+”. “−”=not available.

For `CCC1CN(CCCO)c2cccc3cc(-c4nc5cc(C(=O)N6C[C@H]7CC[C@@H]6[C@@H]7N)cc(OC)c5n4C)n1c23` (single isomer, unassigned) [Example 87], the IC50 was no more than 100 nM.
Molecule `CCC1CN(CCCO)c2cccc3cc(-c4nc5cc(C(=O)N6C[C@H]7CC[C@@H]6[C@@H]7N)cc(OC)c5n4C)n1c23` (single isomer, unassigned) [Example 86] has an IC50 greater than 5000 nM.
With `C#CCn1c(-c2cc3cccc4c3n2C(CC)CN4CCCO)nc2cc(C(=O)N3C[C@H](N)C[C@@H](F)C3)cc(OC)c21` (stereo partly drawn) [Example 95, ((3R,5R)-3-amino-5-fluoropiperidin-1-yl)(2-(3-ethyl-1-(3-hydroxypropyl)-2,3-dihydro-1H-pyrrolo[1,2,3-de]quinoxalin-5-yl)-7-methoxy-1-(prop-2-yn-1-yl)-1H-benzo[d]imidazol-5-yl)methanone] the IC50 (Mus musculus, 4T1, 4 h) was no more than 100 nM.
`CCC1CN(CCCO)c2cccc3cc(-c4nc5cc(C(=O)N6C[C@H](N)C[C@@H](F)C6)cc(OC)c5n4C)n1c23` (single isomer, unassigned) [Example 82] was tested, and the IC50 (Mus musculus, 4T1, 4 h) was no more than 100 nM.
For `CCC1CN(CCCO)c2cccc3cc(-c4nc5cc(C(=O)N6C[C@H]7CC[C@@H]6[C@@H]7N)cc(F)c5n4CC)n1c23` (stereo partly drawn) [Example 96, ((1R,4R,7R)-7-amino-2-azabicyclo[2.2.1]heptan-2-yl)(1-ethyl-2-(3-ethyl-1-(3-hydroxypropyl)-2,3-dihydro-1H-pyrrolo[1,2,3-de]quinoxalin-5-yl)-7-fluoro-1H-benzo[d]imidazol-5-yl)methanone], the IC50 (Mus musculus) was 100 to 500 nM.
In the case of `CCC1CN(CCCO)c2cccc3cc(-c4nc5cc(C(=O)N6C[C@H](N)C[C@@H](F)C6)cc(F)c5n4C)n1c23` (stereo partly drawn) [Example 75, ((3R,5R)-3-amino-5-fluoropiperidin-1-yl)(2-(3-ethyl-1-(3-hydroxypropyl)-2,3-dihydro-1H-pyrrolo[1,2,3-de]quinoxalin-5-yl)-7-fluoro-1-methyl-1H-benzo[d]imidazol-5-yl)methanone], the IC50 (Mus musculus, 4T1, 4 h) is reported as 100 to 500 nM.
